Assay results as given in patent US11993593B2, “Griseofulvin compound and pharmaceutical use thereof” (Daiichi Sankyo Company, Limited, priority 2017, dated 2024).

Tested on: Male ddY mice
Assay: Forced swim test
Format: in vivo
Conditions: Mus musculus, oral, 4 hours after administration, immobility time measured for six minutes, ratio to control group (0.5% methylcellulose)
Protocol: (Test Example) Forced Swim Test
Male ddY mice (4 weeks old at the time of evaluation) were used for the test in groups of 10 mice. The mice were placed in a water bath (inner diameter 14.5 cm, height 20 cm, water temperature about 24° C.) with water filled to a height of about 15 cm, and a swimming trial was carried out for 15 minutes (training trial). The next day, mice were orally administered with a suspension of each compound (10 mL/kg, solvent: 0.5% methylcellulose aqueous solution) was orally administered to the mice, and four hours later, they were placed in the water bath. Immobility time (sec) was measured for six minutes immediately after that, and the ratio of the average immobility time of each compound administration group with respect to the average immobility time of a control group (10 mL/kg administration of 0.5% methylcellulose aqueous solution without a compound) was calculated.

Structure (SMILES): COCCOc1cc(OC)c2c(c1Cl)O[C@]1(C2=O)C(OC)=CC(=O)C[C@H]1C [Example 2, (2S,5′R)-7-chloro-3′,4-dimethoxy-6-(2-methoxyethoxy)-5′-methyl-spiro [benzofuran-2,4′-cyclohex-2-ene]-1′,3-dione]
- response vs control in vivo at 10 mg/kg: 71%

Structure (SMILES): COC1=CC(=O)C[C@@H](C)[C@]12Oc1c(Cl)c(-c3ccn(C)n3)cc(OC)c1C2=O [Example 3, (2S,5′R)-7-chloro-3′,4-dimethoxy-5′-methyl-6-(1-methylpyrazol-3-yl) spiro [benzofuran-2,4′-cyclohex-2-ene]-1′,3-dione]
- response vs control in vivo at 10 mg/kg: 84%

Structure (SMILES): CCn1ccc(-c2cc(OC)c3c(c2Cl)O[C@]2(C3=O)C(OC)=CC(=O)C[C@H]2C)n1 [Example 4, (2S,5′R)-7-chloro-6-(1-ethylpyrazol-3-yl)-3′,4-dimethoxy-5′-methyl-spiro [benzofuran-2,4′-cyclohex-2-ene]-1′,3-dione]
- response vs control in vivo at 10 mg/kg: 61%

Structure (SMILES): COC1=CC(=O)C[C@@H](C)[C@]12Oc1c(Cl)c(-c3nnc(C)o3)cc(OC)c1C2=O [Example 5, (2S,5′R)-7-chloro-3′,4-dimethoxy-5′-methyl-6-(5-methyl-1,3,4-oxadiazol-2-yl) spiro [benzofuran-2,4′-cyclohex-2-ene]-1′,3-dione]
- response vs control in vivo at 10 mg/kg: 62%

Structure (SMILES): COC1=CC(=O)C[C@@H](C)[C@]12Oc1c(Cl)c(-c3nc(C)no3)cc(OC)c1C2=O [Example 6, (2S,5′R)-7-chloro-3′,4-dimethoxy-5′-methyl-6-(3-methyl-1,2,4-oxadiazol-5-yl) spiro [benzofuran-2,4′-cyclohex-2-ene]-1′,3-dione]
- response vs control in vivo at 10 mg/kg: 67%

Structure (SMILES): CCc1nnc(-c2cc(OC)c3c(c2Cl)O[C@]2(C3=O)C(OC)=CC(=O)C[C@H]2C)o1 [Example 17, (2S,5′R)-7-chloro-6-(5-ethyl-1,3,4-oxadiazol-2-yl)-3′,4-dimethoxy-5′-methyl-spiro [benzofuran-2,4′-cyclohex-2-ene]-1′,3-dione]
- response vs control in vivo at 10 mg/kg: 72%

Structure (SMILES): COC1=CC(=O)C[C@@H](C)[C@]12Oc1c(Cl)c(-c3nnc(C4CCOCC4)o3)cc(OC)c1C2=O [Example 18, (2S,5′R)-7-chloro-3′,4-dimethoxy-5′-methyl-6-(5-tetrahydropyran-4-yl-1,3,4-oxadiazol-2-yl) spiro [benzofuran-2,4′-cyclohex-2-ene]-1′,3-dione]
- response vs control in vivo at 10 mg/kg: 85%

Structure (SMILES): COC1=CC(=O)C[C@@H](C)[C@]12Oc1c(Cl)c(-c3nnc([C@H](C)OC)o3)cc(OC)c1C2=O [Example 21, (2S,5′R)-7-chloro-3′,4-dimethoxy-6-[5-[(1S)-1-methoxyethyl]-1,3,4-oxadiazol-2-yl]-5′-methyl-spiro [benzofuran-2,4′-cyclohex-2-ene]-1′,3-dione]
- response vs control in vivo at 10 mg/kg: 87%

Structure (SMILES): CCOc1cc(-c2nnc(C)o2)c(Cl)c2c1C(=O)[C@@]1(O2)C(OC)=CC(=O)C[C@H]1C [Example 22, (2S,5′R)-7-chloro-4-ethoxy-3′-methoxy-5′-methyl-6-(5-methyl-1,3,4-oxadiazol-2-yl) spiro [benzofuran-2,4′-cyclohex-2-ene]-1′,3-dione]
- response vs control in vivo at 10 mg/kg: 88%

Structure (SMILES): COC1=CC(=O)C[C@@H](C)[C@]12Oc1c(Cl)c(-c3nc(C(C)OC)no3)cc(OC)c1C2=O (stereo partly drawn) [Example 24, (2S,5′R)-7-chloro-3′,4-dimethoxy-6-[3-(1-methoxyethyl)-1,2,4-oxadiazol-5-yl]-5′-methyl-spiro [benzofuran-2,4′-cyclohex-2-ene]-1′,3-dione]
- response vs control in vivo at 10 mg/kg: 65%

Structure (SMILES): COC1=CC(=O)C[C@@H](C)[C@]12Oc1c(Cl)c(-c3nc(C(C)(C)O)no3)cc(OC)c1C2=O [Example 25, (2S,5′R)-7-chloro-6-[3-(1-hydroxy-1-methyl-ethyl)-1,2,4-oxadiazol-5-yl]-3′,4-dimethoxy-5′-methyl-spiro [benzofuran-2,4′-cyclohex-2-ene]-1′,3-dione]
- response vs control in vivo at 10 mg/kg: 58%

Structure (SMILES): COC1=CC(=O)C[C@@H](C)[C@]12Oc1c(Cl)c(-c3ccn[nH]3)cc(OC)c1C2=O [Example 26, (2S,5′R)-7-chloro-3′,4-dimethoxy-5′-methyl-6-(1H-pyrazol-5-yl) spiro [benzofuran-2,4′-cyclohex-2-ene]-1′,3-dione]
- response vs control in vivo at 10 mg/kg: 72%

Structure (SMILES): COC1=CC(=O)C[C@@H](C)[C@]12Oc1c(Cl)c(C3=NOC4(CCOCC4)C3)cc(OC)c1C2=O [Example 28, (2S,5′R)-7-chloro-6-(1,8-dioxa-2-azaspiro [4.5]dec-2-en-3-yl)-3′,4-dimethoxy-5′-methyl-spiro [benzofuran-2,4′-cyclohex-2-ene]-1′,3-dione]
- response vs control in vivo at 10 mg/kg: 80%

Structure (SMILES): COC1=CC(=O)C[C@@H](C)[C@]12Oc1c(Cl)c(-c3cnc(OC)nc3)cc(OC)c1C2=O [Example 30, (2S,5′R)-7-chloro-3′,4-dimethoxy-6-(2-methoxypyrimidin-5-yl)-5′-methyl-spiro [benzofuran-2,4′-cyclohex-2-ene]-1′,3-dione]
- response vs control in vivo at 10 mg/kg: 70%

Structure (SMILES): COC1=CC(=O)C[C@@H](C)[C@]12Oc1c(Cl)c(-c3ccc(OC)nc3)cc(OC)c1C2=O [Example 31, (2S,5′R)-7-chloro-3′,4-dimethoxy-6-(6-methoxy-3-pyridyl)-5′-methyl-spiro [benzofuran-2,4′-cyclohex-2-ene]-1′,3-dione]
- response vs control in vivo at 10 mg/kg: 68%

Structure (SMILES): COC1=CC(=O)C[C@@H](C)[C@]12Oc1c(Cl)c(OC)cc(OC)c1C2=O [Griseofulvin, (2S,5′R)-7-chloro-3′,4,6-trimethoxy-5′-methyl-spiro [benzofuran-2,4′-cyclohex-2-ene]-1′,3-dione]
- response vs control in vivo at 100 mg/kg (dose 100 mg/kg): 72%
